Assay results from the NIST ThermoML archive (doi:10.1016/j.jct.2012.08.010).

Experiment: refractive index (Na D-line) (dimensionless); φn = volume fraction of the nth substance listed
Conditions: 101 kPa, Liquid, Standard Abbe refractometry

C=C[Si]1(C)O[Si](C)(C=C)O[Si](C)(C=C)O[Si](C)(C=C)O1 (stereo not given) [2,4,6,8-tetramethyl-2,4,6,8-tetravinylcycloterasiloxane] + CCc1ccccc1
refractive index
Conditions | 288.15 K | 298.15 K | 308.15 K | 318.15 K | 328.15 K
φ1 = 0.1306 | 1.49051 | – | – | – | –
φ1 = 0.1307 | – | 1.48523 | 1.47983 | 1.47444 | 1.46899
φ1 = 0.2495 | 1.48332 | 1.47811 | – | – | –
φ1 = 0.2496 | – | – | 1.47276 | 1.46745 | 1.46201
φ1 = 0.3353 | 1.47811 | 1.47292 | – | – | –
φ1 = 0.3354 | – | – | 1.46765 | 1.46234 | 1.45699
φ1 = 0.4168 | 1.47313 | 1.46801 | 1.46276 | – | –
φ1 = 0.4169 | – | – | – | 1.45752 | 1.45223
φ1 = 0.4874 | 1.46879 | – | – | – | –
φ1 = 0.4875 | – | 1.4637 | 1.45851 | 1.45331 | 1.44807
φ1 = 0.5524 | 1.46478 | – | – | – | –
φ1 = 0.5525 | – | 1.45974 | 1.4546 | 1.44944 | 1.44422
φ1 = 0.5993 | 1.46188 | – | – | – | –
φ1 = 0.5994 | – | 1.45688 | 1.4518 | 1.4467 | 1.44159
φ1 = 0.6539 | 1.45851 | – | – | – | –
φ1 = 0.654 | – | 1.45353 | 1.44849 | 1.44344 | 1.43836
φ1 = 0.699 | 1.4557 | 1.45075 | – | – | –
φ1 = 0.6991 | – | – | 1.44574 | 1.44073 | 1.43564
φ1 = 0.7394 | 1.4532 | 1.44826 | – | – | –
φ1 = 0.7395 | – | – | 1.44331 | 1.43832 | 1.4333
φ1 = 0.7767 | 1.45085 | 1.44594 | 1.44103 | – | –
φ1 = 0.7768 | – | – | – | 1.43607 | 1.43112
φ1 = 0.809 | 1.44885 | 1.44397 | 1.43906 | – | –
φ1 = 0.8091 | – | – | – | 1.43412 | 1.4292
φ1 = 0.8409 | 1.44681 | 1.44197 | – | – | –
φ1 = 0.841 | – | – | 1.43711 | 1.43222 | 1.42729
φ1 = 0.8663 | 1.44522 | 1.44039 | 1.43554 | 1.43067 | 1.42578
φ1 = 0.8945 | 1.44344 | 1.43862 | – | – | –
φ1 = 0.8946 | – | – | 1.43382 | 1.42898 | 1.42413
φ1 = 0.9191 | 1.44188 | 1.43709 | 1.4323 | 1.42747 | 1.42266
φ1 = 0.9412 | 1.44049 | 1.4357 | 1.43092 | 1.42613 | 1.42133
φ1 = 0.9806 | 1.43796 | 1.43323 | 1.42848 | 1.42373 | 1.41899
φ1 = 1 | 1.43674 | 1.43202 | 1.4273 | 1.42257 | 1.41785

C=C[Si]1(C)O[Si](C)(C=C)O[Si](C)(C=C)O[Si](C)(C=C)O1 (stereo not given) [2,4,6,8-tetramethyl-2,4,6,8-tetravinylcycloterasiloxane] + Cc1ccc(C)cc1
Conditions | refractive index
288.15 K, φ1 = 0.13 | 1.49061
288.15 K, φ1 = 0.2483 | 1.48349
288.15 K, φ1 = 0.3379 | 1.47804
288.15 K, φ1 = 0.4151 | 1.47284
288.15 K, φ1 = 0.4853 | 1.46901
288.15 K, φ1 = 0.5501 | 1.46502
288.15 K, φ1 = 0.5978 | 1.46207
288.15 K, φ1 = 0.6522 | 1.45876
288.15 K, φ1 = 0.6974 | 1.45592
288.15 K, φ1 = 0.738 | 1.45339
288.15 K, φ1 = 0.7753 | 1.45103
288.15 K, φ1 = 0.8083 | 1.44898
288.15 K, φ1 = 0.8395 | 1.44696
288.15 K, φ1 = 0.8652 | 1.44534
288.15 K, φ1 = 0.8938 | 1.44353
288.15 K, φ1 = 0.9184 | 1.44195
288.15 K, φ1 = 0.9358 | 1.44086
288.15 K, φ1 = 0.9803 | 1.43802
288.15 K, φ1 = 1 | 1.43674
298.15 K, φ1 = 0.13 | 1.48533
298.15 K, φ1 = 0.2483 | 1.47825
298.15 K, φ1 = 0.338 | 1.47286
298.15 K, φ1 = 0.4151 | 1.46772
298.15 K, φ1 = 0.4854 | 1.46393
298.15 K, φ1 = 0.5501 | 1.45998
298.15 K, φ1 = 0.5979 | 1.45705
298.15 K, φ1 = 0.6522 | 1.45378
298.15 K, φ1 = 0.6975 | 1.45098
298.15 K, φ1 = 0.7381 | 1.44845
298.15 K, φ1 = 0.7754 | 1.44612
298.15 K, φ1 = 0.8084 | 1.44409
298.15 K, φ1 = 0.8396 | 1.44211
298.15 K, φ1 = 0.8653 | 1.44053
298.15 K, φ1 = 0.8939 | 1.43869
298.15 K, φ1 = 0.9185 | 1.43716
298.15 K, φ1 = 0.9358 | 1.43605
298.15 K, φ1 = 0.9803 | 1.43326
298.15 K, φ1 = 1 | 1.43202
308.15 K, φ1 = 0.13 | 1.47996
308.15 K, φ1 = 0.2484 | 1.47298
308.15 K, φ1 = 0.338 | 1.46767
308.15 K, φ1 = 0.4152 | 1.46256
308.15 K, φ1 = 0.4855 | 1.45883
308.15 K, φ1 = 0.5502 | 1.45494
308.15 K, φ1 = 0.5979 | 1.45204
308.15 K, φ1 = 0.6523 | 1.44878
308.15 K, φ1 = 0.6975 | 1.446
308.15 K, φ1 = 0.7381 | 1.44353
308.15 K, φ1 = 0.7754 | 1.44126
308.15 K, φ1 = 0.8084 | 1.4392
308.15 K, φ1 = 0.8396 | 1.43729
308.15 K, φ1 = 0.8653 | 1.4357
308.15 K, φ1 = 0.8939 | 1.43391
308.15 K, φ1 = 0.9185 | 1.43239
308.15 K, φ1 = 0.9359 | 1.43132
308.15 K, φ1 = 0.9803 | 1.42853
308.15 K, φ1 = 1 | 1.4273
318.15 K, φ1 = 0.1301 | 1.47462
318.15 K, φ1 = 0.2484 | 1.46772
318.15 K, φ1 = 0.3381 | 1.46245
318.15 K, φ1 = 0.4152 | 1.45742
318.15 K, φ1 = 0.4855 | 1.45373
318.15 K, φ1 = 0.5503 | 1.4499
318.15 K, φ1 = 0.598 | 1.44702
318.15 K, φ1 = 0.6523 | 1.4438
318.15 K, φ1 = 0.6976 | 1.44108
318.15 K, φ1 = 0.7381 | 1.43861
318.15 K, φ1 = 0.7755 | 1.43636
318.15 K, φ1 = 0.8084 | 1.43432
318.15 K, φ1 = 0.8396 | 1.43244
318.15 K, φ1 = 0.8653 | 1.43087
318.15 K, φ1 = 0.8939 | 1.42911
318.15 K, φ1 = 0.9185 | 1.42761
318.15 K, φ1 = 0.9359 | 1.42653
318.15 K, φ1 = 0.9803 | 1.42379
318.15 K, φ1 = 1 | 1.42257
328.15 K, φ1 = 0.1301 | 1.46923
328.15 K, φ1 = 0.2484 | 1.46244
328.15 K, φ1 = 0.3381 | 1.45725
328.15 K, φ1 = 0.4152 | 1.45229
328.15 K, φ1 = 0.4855 | 1.44864
328.15 K, φ1 = 0.5503 | 1.44483
328.15 K, φ1 = 0.598 | 1.44202
328.15 K, φ1 = 0.6523 | 1.43879
328.15 K, φ1 = 0.6976 | 1.43612
328.15 K, φ1 = 0.7382 | 1.43369
328.15 K, φ1 = 0.7755 | 1.43148
328.15 K, φ1 = 0.8085 | 1.42949
328.15 K, φ1 = 0.8396 | 1.42761
328.15 K, φ1 = 0.8653 | 1.42605
328.15 K, φ1 = 0.8939 | 1.42343
328.15 K, φ1 = 0.9185 | 1.42282
328.15 K, φ1 = 0.9359 | 1.42178
328.15 K, φ1 = 0.9803 | 1.41906
328.15 K, φ1 = 1 | 1.41785
